Experimental data published in patent publication US12310970B2, “Compounds and methods for treating or preventing anterior segment ocular disorders and/or retinal degenerations” (YALE UNIVERSITY, priority 2018, dated 2025).
In brackets after ≈: the same amount, converted by molar mass.

Key:
[1] = Solubility / dissolution in aqueous media; assay type: physicochemical
Method: 2.00 g HPBCD was dissolved in 4 mL deionized and filtered water by slow inversion/rotation. […] The volume was adjusted to 5.00 mL to provide 5.00 mL of a 40% clear solution by weight. To the 5.00 mL solution of 40% HPBCD was added 175 mg ciclopirox powder, and the vial was sealed and placed under slow rotary inversion to dissolve the solid. […] This 35 mg/mL solution was easily filtered through a 0.22 um syringe filter (MILLEX GV, PVDF membrane).
To the 5.00 mL solution of 40% HPBCD was added 175 mg (0.844 mmol, MW 207.3) ciclopirox powder and the vial sealed and placed under slow rotary inversion to dissolve the solid. […] This 35 mg/mL solution was easily filtered through a 0.22 um syringe filter (MILLEX GV, PVDF membrane).

[2] = in water; cited from earlier work

solubility ([1]; aqueous buffer, pH 7.4 phosphate buffer (no saline)) [µg/mL] | concentration completely dissolved ([1]; in 40% HPBCD, after 1 hour mixing) [µg/mL] | Structure (SMILES) | solubility limit [2]
1000 (≈ 4.82 mM) | 35000 | Cc1cc(C2CCCCC2)n(O)c(=O)c1 [ciclopirox, 6-cyclohexyl-1-hydroxy-4-methyl-2(1H)-pyridone] | 
 |  | OC[C@H]1O[C@@H]2O[C@H]3[C@H](O)[C@@H](O)[C@@H](O[C@H]4[C@H](O)[C@@H](O)[C@@H](O[C@H]5[C@H](O)[C@@H](O)[C@@H](O[C@H]6[C@H](O)[C@@H](O)[C@@H](O[C@H]7[C@H](O)[C@@H](O)[C@@H](O[C@H]8[C@H](O)[C@@H](O)[C@@H](O[C@H]9[C@H](O)[C@@H](O)[C@@H](O[C@H]1[C@H](O)[C@H]2O)O[C@@H]9CO)O[C@@H]8CO)O[C@@H]7CO)O[C@@H]6CO)O[C@@H]5CO)O[C@@H]4CO)O[C@@H]3CO [gamma cyclodextrin] | about 23.2 mg/mL
